Assay results: PubChem BioAssay AID330 (DTP/NCI, 2004)
“And” between values parts separate entries of the source, which are not always exact repeats. Equal entries are not always repeated. Inconclusive results and toxic doses are left out. Square brackets hold non-standard residues; d marks the D form. Peptide text beside a SMILES is read from it. Ac5c = NC1(C(=O)O)CCCC1

Tested on: P388 leukemia ip, CD2F1 mice, survival T/C
Assay: NCI In Vivo Anticancer Drug Screen. Data for tumor model P388 Leukemia (intraperitoneal) in CD2F1 (CDF1) mice
Settings: endpoint: median survival time, higher = longer survival
Procedure, shortened: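 Mice carrying the transplanted tumor received test compound or vehicle. Survival was recorded in each group, and the value is the treated-group measurement divided by that of the vehicle-treated control group.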

[1] = dose: 100.0 mg/kg/injection, schedule: Q01DX009 (ip), vehicle: saline with Tween-80
[2] = dose: 100.0 mg/kg/injection, schedule: Q01DX001 (ip), vehicle: saline with Tween-80
[3] = dose: 200.0 mg/kg/injection, schedule: Q01DX001 (ip), vehicle: saline with Tween-80
[4] = dose: 60.0 mg/kg/injection, schedule: Q01DX005 (ip), vehicle: Klucel (hydroxypropylcellulose) (HPC)
[5] = dose: 120.0 mg/kg/injection, schedule: Q01DX005 (ip), vehicle: Klucel (hydroxypropylcellulose) (HPC)
[6] = dose: 240.0 mg/kg/injection, schedule: Q01DX005 (ip), vehicle: Klucel (hydroxypropylcellulose) (HPC)
[7] = dose: 200.0 mg/kg/injection, schedule: Q01DX009 (ip), vehicle: saline with Tween-80

CCO/C=C1\SC(=S)N(c2ccccc2C)C1=O
T/C (dose: 2.5 mg/kg/injection, schedule: Q03HX024 (ip), vehicle: saline with Tween-80): 105 % of control
T/C (dose: 5.0 mg/kg/injection, schedule: Q03HX024 (ip), vehicle: saline with Tween-80): 107 % of control
T/C (dose: 10.0 mg/kg/injection, schedule: Q03HX024 (ip), vehicle: saline with Tween-80): 117 % of control
T/C (dose: 14.6 mg/kg/injection, schedule: Q01DX009 (ip), vehicle: saline with Tween-80): 105 % of control
T/C (dose: 22.0 mg/kg/injection, schedule: Q01DX009 (ip), vehicle: saline with Tween-80): 105 % of control
T/C [1]: 160 % of control
T/C (dose: 100.0 mg/kg/injection, schedule: Q04DX003 (ip), vehicle: saline with Tween-80): 116 % of control
T/C (dose: 200.0 mg/kg/injection, schedule: Q04DX003 (ip), vehicle: saline with Tween-80): 120 % of control

COc1cc(C=Nc2cc(Br)cc(Br)c2)ccc1N(CCCl)CCCl
T/C (dose: 0.44 mg/kg/injection, schedule: Q01DX009 (ip), vehicle: saline with Tween-80): 120 % of control
T/C (dose: 0.66 mg/kg/injection, schedule: Q01DX009 (ip), vehicle: saline with Tween-80): 105 % of control
T/C (dose: 1.5 mg/kg/injection, schedule: Q01DX009 (ip), vehicle: saline with Tween-80): 170 % of control
T/C (dose: 2.25 mg/kg/injection, schedule: Q04DX003 (ip), vehicle: other): 111 % of control
T/C (dose: 2.5 mg/kg/injection, schedule: Q01DX009 (ip), vehicle: saline with Tween-80): 165 % of control
T/C (dose: 5.0 mg/kg/injection, schedule: Q01DX009 (ip), vehicle: saline with Tween-80): 170 % of control
T/C (dose: 9.0 mg/kg/injection, schedule: Q04DX003 (ip), vehicle: other): 165 % of control
T/C (dose: 10.0 mg/kg/injection, schedule: Q01DX009 (ip), vehicle: saline with Tween-80): 110 % of control
T/C (dose: 18.0 mg/kg/injection, schedule: Q04DX003 (ip), vehicle: other): 223 % of control

Cc1ccc(S(=O)(=O)CC2OCC3OC(C)(C)OC23)cc1 (stereo not drawn)
T/C (dose: 12.5 mg/kg/injection, schedule: Q01DX009 (ip), vehicle: water): 100 % of control
T/C (dose: 25.0 mg/kg/injection, schedule: Q01DX009 (ip), vehicle: water): 93 % of control
T/C (dose: 50.0 mg/kg/injection, schedule: Q01DX009 (ip), vehicle: water): 89 % of control
T/C (dose: 100.0 mg/kg/injection, schedule: Q01DX009 (ip), vehicle: water): 100 % of control
T/C (dose: 200.0 mg/kg/injection, schedule: Q01DX009 (ip), vehicle: water): 94 % of control

COc1ccc2sc3c(C)ccc(NCCC4CCCN5CCCCC45)c3c(=O)c2c1 (stereo not drawn)
T/C [2]: 87 % of control
T/C [3]: 87 % of control

C=C1C(C2(C)C(OC(C)=O)CC(=O)OC3(C)COC(=O)CC32)C(OC=O)C(OC(=O)CC(C)C)C2(C)C(c3ccoc3)CC(=O)C12O (stereo not drawn)
T/C (dose: 0.25 mg/kg/injection, schedule: Q01DX009 (ip), vehicle: Klucel (hydroxypropylcellulose) (HPC)): 88 % of control
T/C (dose: 0.5 mg/kg/injection, schedule: Q01DX009 (ip), vehicle: Klucel (hydroxypropylcellulose) (HPC)): 91 % of control
T/C (dose: 1.0 mg/kg/injection, schedule: Q01DX009 (ip), vehicle: Klucel (hydroxypropylcellulose) (HPC)): 88 % of control
T/C (dose: 2.0 mg/kg/injection, schedule: Q01DX009 (ip), vehicle: Klucel (hydroxypropylcellulose) (HPC)): 97 % of control

COc1ccc(C(=O)C(CN(C)C)CN(C)C)cc1OC
T/C (dose: 6.25 mg/kg/injection, schedule: Q01DX005 (ip), vehicle: saline): 113 % of control
T/C (dose: 12.5 mg/kg/injection, schedule: Q01DX005 (ip), vehicle: saline): 117 % of control and 124 % of control
T/C (dose: 25.0 mg/kg/injection, schedule: Q01DX005 (ip), vehicle: saline): 117 % of control and 121 % of control
T/C (dose: 50.0 mg/kg/injection, schedule: Q01DX005 (ip), vehicle: saline): 112 % of control

Cc1nnsc1-c1nnc2sc(C(F)(F)F)nn12
T/C (dose: 50.0 mg/kg/injection, schedule: Q04DX002 (ip), vehicle: Klucel (hydroxypropylcellulose) (HPC)): 100 % of control
T/C (dose: 100.0 mg/kg/injection, schedule: Q04DX002 (ip), vehicle: Klucel (hydroxypropylcellulose) (HPC)): 100 % of control
T/C (dose: 200.0 mg/kg/injection, schedule: Q04DX002 (ip), vehicle: Klucel (hydroxypropylcellulose) (HPC)): 100 % of control

COc1cccc2c1C(=O)c1c(O)c3c(c(O)c1C2=O)C[C@@](O)(C(=O)CO)C[C@@H]3OC1CC(NCC#N)C(O)C(C)O1 (stereo partly drawn)
T/C (dose: 8.0 mg/kg/injection, schedule: Q04DX003 (ip), vehicle: saline + alcohol): 153 % of control
T/C (dose: 32.0 mg/kg/injection, schedule: Q04DX003 (ip), vehicle: saline + Tween-80 + alcohol): 108 % of control
T/C (dose: 32.0 mg/kg/injection, schedule: Q04DX003 (ip), vehicle: saline + alcohol): 117 % of control

NCC(=O)NC1(C(=O)O)CCCC1 (H-Gly-[Ac5c]-OH)
T/C (dose: 25.0 mg/kg/injection, schedule: Q01DX009 (ip), vehicle: saline): 118 % of control
T/C (dose: 50.0 mg/kg/injection, schedule: Q01DX009 (ip), vehicle: saline): 118 % of control
T/C (dose: 100.0 mg/kg/injection, schedule: Q01DX009 (ip), vehicle: saline): 122 % of control
T/C (dose: 100.0 mg/kg/injection, schedule: Q04DX003 (ip), vehicle: saline): 95 % of control
T/C (dose: 200.0 mg/kg/injection, schedule: Q01DX009 (ip), vehicle: saline): 105 % of control
T/C (dose: 200.0 mg/kg/injection, schedule: Q04DX003 (ip), vehicle: saline): 100 % of control
T/C (dose: 400.0 mg/kg/injection, schedule: Q01DX009 (ip), vehicle: saline): 93 % of control
T/C (dose: 400.0 mg/kg/injection, schedule: Q04DX003 (ip), vehicle: saline): 108 % of control

CC1CCN(C(=O)Nc2c(Cl)cccc2Cl)CC1
T/C [4]: 99 % of control
T/C [5]: 101 % of control
T/C [6]: 94 % of control

CCC(=O)Nc1ncc([N+](=O)[O-])s1
T/C (dose: 25.0 mg/kg/injection, schedule: Q01DX009 (ip), vehicle: saline with Tween-80): 94 % of control
T/C (dose: 50.0 mg/kg/injection, schedule: Q01DX009 (ip), vehicle: saline with Tween-80): 86 % of control
T/C [7]: 86 % of control

CC(Nc1ncccn1)Nc1ncccn1
T/C [4]: 107 % of control
T/C [5]: 102 % of control
T/C [6]: 111 % of control

C[CH2][Sn]([CH2]C)([O]S(=O)(=O)CC12CCC(CC1=O)C2(C)C)[O]S(=O)(=O)CC12CCC(CC1=O)C2(C)C
T/C (dose: 1.56 mg/kg/injection, schedule: Q01DX009 (ip), vehicle: saline): 102 % of control
T/C (dose: 3.12 mg/kg/injection, schedule: Q01DX009 (ip), vehicle: saline): 119 % of control

O=[N+]([O-])c1ccc(/C=[N+](\[O-])CCO)cc1
T/C [1]: 99 % of control
T/C [7]: 92 % of control

CCCCCCCCCCCCCCCCS(=O)(=O)N/N=C(/c1ccc(Cl)cc1)N1CCCCC1
T/C (dose: 50.0 mg/kg/injection, schedule: Q01DX009 (ip), vehicle: Klucel (hydroxypropylcellulose) (HPC)): 100 % of control
T/C (dose: 100.0 mg/kg/injection, schedule: Q01DX009 (ip), vehicle: Klucel (hydroxypropylcellulose) (HPC)): 102 % of control
T/C (dose: 200.0 mg/kg/injection, schedule: Q01DX009 (ip), vehicle: Klucel (hydroxypropylcellulose) (HPC)): 92 % of control

COC1=C(C)C2CC(=O)OC3CC4C(C)CC(O)C(=O)C4(C)C(C1=O)C32C (stereo not drawn)
T/C (dose: 0.5 mg/kg/injection, schedule: Q01DX009 (ip), vehicle: saline + alcohol): 108 % of control
T/C (dose: 1.0 mg/kg/injection, schedule: Q01DX009 (ip), vehicle: saline + alcohol): 106 % of control
T/C (dose: 2.0 mg/kg/injection, schedule: Q01DX009 (ip), vehicle: saline + alcohol): 106 % of control
T/C (dose: 4.0 mg/kg/injection, schedule: Q01DX009 (ip), vehicle: saline + alcohol): 104 % of control
T/C (dose: 8.0 mg/kg/injection, schedule: Q01DX009 (ip), vehicle: saline + alcohol): 107 % of control

[O-]c1on[n+](-c2ccccc2-n2cccn2)c1-c1ccccc1
T/C [2]: 90 % of control
T/C [3]: 91 % of control
T/C (dose: 400.0 mg/kg/injection, schedule: Q01DX001 (ip), vehicle: saline with Tween-80): 90 % of control

OC[C@H]1N[C@H](CO)[C@@H](O)[C@H]1O
T/C (dose: 60.0 mg/kg/injection, schedule: Q01DX005 (ip), vehicle: saline): 100 % of control
T/C (dose: 120.0 mg/kg/injection, schedule: Q01DX005 (ip), vehicle: saline): 99 % of control
T/C (dose: 240.0 mg/kg/injection, schedule: Q01DX005 (ip), vehicle: saline): 103 % of control
